From the supplement of paper PMC10307832

Legend:
Experiment in all cases: relative viability (nuclei count vs DMSO), 5 days (fraction); higher = more cells survive
IPA-3 + Linsitinib = compound: C1=CC=C2C(=C1)C=CC(=C2SSC3=C(C=CC4=CC=CC=C43)O)O [IPA-3] + C[C@]1(O)C[C@@H](c2nc(-c3ccc4ccc(-c5ccccc5)nc4c3)c3c(N)nccn32)C1 [Linsitinib] (partner 1 µM)
Outline: (§1)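 Medians of duplicate plates are given as relative viability. That measure is the nuclei count in treated wells divided by the count in vehicle wells. Counts were taken on 4× images of lung cancer cell lines in 1536-well plates, 5 days after pin-tool dosing the day after seeding with one drug alone or a fixed anchor-drug dose plus five library-drug doses (not always all listed) in √10 steps.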

RAF265 + Bortezomib = compound: Cn1c(Nc2ccc(C(F)(F)F)cc2)nc2cc(Oc3ccnc(-c4ncc(C(F)(F)F)[nH]4)c3)ccc21 [RAF265] + CC(C)C[C@H](NC(=O)[C@H](Cc1ccccc1)NC(=O)c1cnccn1)B(O)O [Bortezomib] (partner 0.002 µM)
Outline: as §1

IPA-3 + Crizotinib = compound: C1=CC=C2C(=C1)C=CC(=C2SSC3=C(C=CC4=CC=CC=C43)O)O [IPA-3] + C[C@@H](Oc1cc(-c2cnn(C3CCNCC3)c2)cnc1N)c1c(Cl)ccc(F)c1Cl [Crizotinib] (partner 1 µM)
Outline: as §1

IPA-3 + Decitabine = compound: C1=CC=C2C(=C1)C=CC(=C2SSC3=C(C=CC4=CC=CC=C43)O)O [IPA-3] + Nc1ncn([C@H]2C[C@H](O)[C@@H](CO)O2)c(=O)n1 [Decitabine] (partner 2 µM)
Outline: as §1

Cell Line | relative viability (IPA-3 + Linsitinib; first compound 0.2 µM) | relative viability (IPA-3 + Linsitinib; first compound 0.6325 µM) | relative viability (IPA-3 + Linsitinib; first compound 2 µM) | relative viability (IPA-3 + Linsitinib; first compound 6.325 µM) | relative viability (IPA-3 + Linsitinib; first compound 20 µM) | relative viability (RAF265 + Bortezomib; first compound 0.01 µM) | relative viability (RAF265 + Bortezomib; first compound 0.03162 µM) | relative viability (RAF265 + Bortezomib; first compound 0.1 µM) | relative viability (RAF265 + Bortezomib; first compound 0.3162 µM) | relative viability (RAF265 + Bortezomib; first compound 1 µM) | relative viability (IPA-3 + Crizotinib; first compound 0.2 µM) | relative viability (IPA-3 + Crizotinib; first compound 0.6325 µM) | relative viability (IPA-3 + Crizotinib; first compound 2 µM) | relative viability (IPA-3 + Crizotinib; first compound 6.325 µM) | relative viability (IPA-3 + Crizotinib; first compound 20 µM) | relative viability (IPA-3 + Decitabine; first compound 0.2 µM) | relative viability (IPA-3 + Decitabine; first compound 0.6325 µM) | relative viability (IPA-3 + Decitabine; first compound 2 µM) | relative viability (IPA-3 + Decitabine; first compound 6.325 µM) | relative viability (IPA-3 + Decitabine; first compound 20 µM)
PC-3 [JPC-3] | 0.965 | 0.904 | 0.977 | 0.994 | 0.922 | 0.751 | 0.815 | 0.834 | 0.393 | 0.731 | 1.04 | 0.964 | 0.937 | 0.976 | 0.923 | 0.849 | 0.837 | 0.813 | 0.779 | 0.855
PC-14 | 0.945 | 0.96 | 1.01 | 0.922 | 1.09 | 0.798 | 0.726 | 0.886 | 0.953 | 0.693 | 0.938 | 0.858 | 1.08 | 0.839 | 1 | 0.29 | 0.152 | 0.226 | 0.187 | 0.144
RERF-LC-KJ | 0.965 | 0.876 | 0.875 | 0.811 | 1.01 | 1.17 | 1.16 | 1.07 | 1.03 | 0.761 | 0.794 | 0.796 | 0.922 | 0.789 | 0.816 | 0.896 | 0.639 | 0.701 | 0.704 | 0.689
SK-LU-1 | 1.44 | – | 1.27 | 0.893 | 1.11 | 1.18 | 1.08 | 1.09 | 0.453 | 0.512 | 1.27 | – | 0.929 | 0.823 | 0.89 | 0.708 | 0.497 | 0.658 | 0.689 | 0.651
SW 1573 | 1.07 | 0.921 | 0.682 | 0.833 | 0.843 | 1.38 | 0.91 | 1.17 | 0.873 | 0.514 | 0.802 | 0.814 | 0.933 | 0.872 | 0.811 | 0.7 | 0.452 | 0.485 | 0.56 | 0.121
